Assay results as given in patent US12180187B2, “1-phenyl-5-azinylpyrazolyl-3-oxyalkyl acids and their use for controlling unwanted plant growth” (BAYER AKTIENGESELLSCHAFT, priority 2019, dated 2024).

How the values were obtained:
[1] = test system: VERPE; test: Pre-emergence action against VERPE, 1280 g/ha; format: in vivo, Veronica persica; conditions: scored visually after about 3 weeks vs untreated controls (100% = plants have died)
Method in brief: (§1)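 Greenhouse pre-emergence test on sown seeds in sandy loam; soil-surface spray of formulated compound with 0.5% additive at 600 L/ha water. Scored visually, % vs untreated, after about 3 weeks.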

[2] = test system: MATIN; test: Pre-emergence action at 320 g/ha against MATIN; format: in vivo, Tripleurospermum inodorum (Matricaria inodora); conditions: visual scoring after about 3 weeks vs untreated controls
Method in brief: (§2)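 Visual scoring in percent against untreated controls, about 3 weeks after treatment, where 100% means dead plants and 0% means no difference. Compounds were applied as aqueous suspension or emulsion (WP or EC, plus 0.5% additive) onto soil covering freshly sown seeds, at 600 l/ha water.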

[3] = test system: LOLRI; test: Post-emergence action against LOLRI, 1.28 kg/ha; format: in vivo, Lolium rigidum; conditions: dosage 1280 g/ha, visual rating about 3 weeks after treatment vs untreated controls
Method in brief: (§3)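 Visual rating against untreated plants about 3 weeks after spraying gives % activity, where 0% means like controls and 100% means plants died. Plants were treated post-emergence at the one-leaf stage with compound formulated as wettable powder or emulsion concentrate, applied at 600 L water/ha plus 0.5% additive.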

[4] = test system: ECHCG; test: Pre-emergence action against ECHCG, 1280 g/ha; format: in vivo, Echinochloa crus-galli; conditions: visual scoring after about 3 weeks vs untreated controls, 100% = plants have died, 0% = like control plants
Method in brief: as §1

[5] = test system: VIOTR; test: Pre-emergence action at 320 g/ha against VIOTR; format: in vivo, Viola tricolor; conditions: dosage 320 g/ha
Method in brief: as §2

[6] = test system: SETVI; test: Pre-emergence action against SETVI, 1280 g/ha; format: in vivo, Setaria viridis; conditions: visual scoring after about 3 weeks vs untreated controls, 100% = plants have died, 0% = like control plants
Method in brief: as §1

[7] = test system: PHBPU; test: Pre-emergence action at 320 g/ha against PHBPU; format: in vivo; conditions: visual scoring after about 3 weeks vs untreated controls
Method in brief: as §2

[8] = test system: SETVI; test: Pre-emergence action at 320 g/ha against SETVI; format: in vivo, Setaria viridis; conditions: visual scoring after about 3 weeks vs untreated controls
Method in brief: as §2

[9] = test system: AMARE; test: Post-emergence action against AMARE, 1.28 kg/ha; format: in vivo, Amaranthus retroflexus; conditions: dosage 1280 g/ha, visual rating about 3 weeks after treatment vs untreated controls (100% = plants died)
Method in brief: as §3

[10] = test system: MATIN; test: Pre-emergence action against MATIN, 1280 g/ha; format: in vivo, Tripleurospermum inodorum (Matricaria inodora); conditions: scored visually after about 3 weeks vs untreated controls (100% = plants have died)
Method in brief: as §1

[11] = test system: ALOMY; test: Pre-emergence action at 320 g/ha against ALOMY; format: in vivo, Alopecurus myosuroides; conditions: scored visually after about 3 weeks vs untreated controls (100% = plants have died)
Method in brief: as §2

[12] = test system: AMARE; test: Pre-emergence action against AMARE, 1280 g/ha; format: in vivo, Amaranthus retroflexus; conditions: scored visually after about 3 weeks vs untreated controls (100% = plants have died)
Method in brief: as §1

[13] = test system: KCHSC; test: Post-emergence action against KCHSC, 1.28 kg/ha; format: in vivo, Bassia scoparia; conditions: dosage 1280 g/ha, visual rating about 3 weeks after treatment vs untreated controls (100% = plants died)
Method in brief: as §3

[14] = test system: AMARE; test: Pre-emergence action at 320 g/ha against AMARE; format: in vivo, Amaranthus retroflexus; conditions: visual scoring after about 3 weeks vs untreated controls
Method in brief: as §2

[15] = test system: DIGSA; test: Pre-emergence action against DIGSA, 1280 g/ha; format: in vivo, Digitaria sanguinalis; conditions: visual scoring after about 3 weeks vs untreated controls, 100% = plants have died, 0% = like control plants
Method in brief: as §1

[16] = test system: ALOMY; test: Post-emergence action against ALOMY, 1.28 kg/ha; format: in vivo, Alopecurus myosuroides; conditions: dosage 1280 g/ha, visual rating about 3 weeks after treatment vs untreated controls
Method in brief: as §3

[17] = test system: VERPE; test: Pre-emergence action at 320 g/ha against VERPE; format: in vivo, Veronica persica; conditions: visual scoring after about 3 weeks vs untreated controls
Method in brief: as §2

[18] = test system: ABUTH; test: Pre-emergence action against ABUTH, 1280 g/ha; format: in vivo, Abutilon theophrasti; conditions: scored visually after about 3 weeks vs untreated controls (100% = plants have died)
Method in brief: as §1

[19] = test system: DIGSA; test: Pre-emergence action at 320 g/ha against DIGSA; format: in vivo, Digitaria sanguinalis; conditions: visual scoring after about 3 weeks vs untreated controls
Method in brief: as §2

[20] = test system: MATIN; test: Post-emergence action against MATIN, 1.28 kg/ha; format: in vivo, Tripleurospermum inodorum (Matricaria inodora); conditions: dosage 1280 g/ha, visual rating about 3 weeks after treatment vs untreated controls (100% = plants died)
Method in brief: as §3

[21] = test system: ALOMY; test: Pre-emergence action against ALOMY, 1280 g/ha; format: in vivo, Alopecurus myosuroides; conditions: visual scoring after about 3 weeks vs untreated controls, 100% = plants have died, 0% = like control plants
Method in brief: as §1

[22] = test system: ABUTH; test: Pre-emergence action at 320 g/ha against ABUTH; format: in vivo, Abutilon theophrasti; conditions: greenhouse, scored visually after about 3 weeks vs untreated controls, 100% = plants have died, 0% = like control plants
From the text: b) Seeds of monocotyledonous and dicotyledonous weed plants and crop plants are placed in plastic or organic planting pots and covered with soil. The compounds of the invention, formulated in the form of wettable powders (WP) or as emulsion concentrates (EC), are then applied onto the surface of the covering soil as aqueous suspension or emulsion with addition of 0.5% additive at a water application rate of 600 l/ha (converted). After the treatment, the pots are placed in a greenhouse and kept under good growth conditions for the trial plants. After about 3 weeks, the effect of the preparations is scored visually in comparison with untreated controls as percentages. For example, 100% activity=the plants have died, 0% activity=like control plants. Tables 13 to 26 below show the effects of selected compounds of the general formula (I) on various harmful plants and at an application rate corresponding to 320 g/ha, which were obtained by the experimental procedure mentioned above.

[23] = test system: POAAN; test: Post-emergence action against POAAN, 1.28 kg/ha; format: in vivo, Poa annua; conditions: dosage 1280 g/ha, visual rating about 3 weeks after treatment vs untreated controls
Method in brief: as §3

[24] = test system: LOLRI; test: Pre-emergence action at 320 g/ha against LOLRI; format: in vivo, Lolium rigidum; conditions: visual scoring after about 3 weeks vs untreated controls
Method in brief: as §2

[25] = test system: LOLRI; test: Pre-emergence action against LOLRI, 1280 g/ha; format: in vivo, Lolium rigidum; conditions: visual scoring after about 3 weeks vs untreated controls, 100% = plants have died, 0% = like control plants
Method in brief: as §1

[26] = test system: ABUTH; test: Post-emergence action against ABUTH, 1.28 kg/ha; format: in vivo, Abutilon theophrasti; conditions: dosage 1280 g/ha, visual rating about 3 weeks after treatment vs untreated controls (100% = plants died)
Method in brief: as §3

[27] = test system: POAAN; test: Pre-emergence action against POAAN, 1280 g/ha; format: in vivo, Poa annua; conditions: visual scoring after about 3 weeks vs untreated controls, 100% = plants have died, 0% = like control plants
Method in brief: as §1

[28] = test system: VERPE; test: Post-emergence action against VERPE, 1.28 kg/ha; format: in vivo, Veronica persica; conditions: dosage 1280 g/ha, visual rating about 3 weeks after treatment vs untreated controls (100% = plants died)
Method in brief: as §3

[29] = test system: STEME; test: Pre-emergence action against STEME, 1280 g/ha; format: in vivo, Stellaria media; conditions: scored visually after about 3 weeks vs untreated controls (100% = plants have died)
Method in brief: as §1

[30] = test system: STEME; test: Post-emergence action against STEME, 1.28 kg/ha; format: in vivo, Stellaria media; conditions: dosage 1280 g/ha, visual rating about 3 weeks after treatment vs untreated controls (100% = plants died)
Method in brief: as §3

[31] = test system: KCHSC; test: Pre-emergence action against KCHSC, 1280 g/ha; format: in vivo, Bassia scoparia; conditions: scored visually after about 3 weeks vs untreated controls (100% = plants have died)
Method in brief: as §1

[32] = test system: AVEFA; test: Pre-emergence action at 320 g/ha against AVEFA; format: in vivo; conditions: visual scoring after about 3 weeks vs untreated controls
Method in brief: as §2

[33] = test system: DIGSA; test: Post-emergence action against DIGSA, 1.28 kg/ha; format: in vivo, Digitaria sanguinalis; conditions: dosage 1280 g/ha, visual rating about 3 weeks after treatment vs untreated controls
Method in brief: as §3

[34] = test system: POLCO; test: Pre-emergence action at 320 g/ha against POLCO; format: in vivo, Fallopia convolvulus (Polygonum convolvulus); conditions: visual scoring after about 3 weeks vs untreated controls
Method in brief: as §2

[35] = test system: ECHCG; test: Post-emergence action against ECHCG, 1.28 kg/ha; format: in vivo, Echinochloa crus-galli; conditions: dosage 1280 g/ha, visual rating about 3 weeks after treatment vs untreated controls
Method in brief: as §3

C[C@@H](Oc1nn(-c2ccccc2F)c(-c2cncnc2)c1Cl)C(=O)O [VI-018]
Pre-emergence action against VERPE [1]: 100%
Pre-emergence action against MATIN in % [2]: 90%
Post-emergence action against LOLRI [3]: 90%
Pre-emergence action against ECHCG [4]: 100%
Pre-emergence action against VIOTR in % [5]: 90%
Pre-emergence action against SETVI [6]: 100%
Pre-emergence action against PHBPU in % [7]: 90%
Pre-emergence action against SETVI in % [8]: 100%
Post-emergence action against AMARE [9]: 90%
Pre-emergence action against MATIN [10]: 100%
Pre-emergence action at 320 g/ha against ALOMY in % [11]: 100%
Pre-emergence action against AMARE [12]: 100%
Post-emergence action against KCHSC [13]: 90%
Pre-emergence action against AMARE in % [14]: 100%
Pre-emergence action against DIGSA [15]: 100%
Post-emergence action against ALOMY [16]: 100%
Pre-emergence action against VERPE in % [17]: 80%
Pre-emergence action against ABUTH [18]: 90%
Pre-emergence action against DIGSA in % [19]: 100%
Post-emergence action against MATIN [20]: 100%
Pre-emergence action against ALOMY [21]: 100%
Pre-emergence action at 320 g/ha against ABUTH in % [22]: 80%
Post-emergence action against POAAN [23]: 100%
Pre-emergence action against LOLRI in % [24]: 100%
Pre-emergence action against LOLRI [25]: 100%
Post-emergence action against ABUTH [26]: 90%
Pre-emergence action against POAAN [27]: 100%
Post-emergence action against VERPE [28]: 100%
Pre-emergence action against STEME [29]: 100%
Post-emergence action against STEME [30]: 90%
Pre-emergence action against KCHSC [31]: 100%
Pre-emergence action against AVEFA in % [32]: 80%
Post-emergence action against DIGSA [33]: 100%
Pre-emergence action against POLCO in % [34]: 90%
Post-emergence action against ECHCG [35]: 100%
